Patent US10232023B2, “Methods for treatment of and prophylaxis against inflammatory disorders” (THE UNIVERSITY OF UTAH RESEARCH FOUNDATION, priority 2013, dated 2019)

Columns and labels:
NET formation = NET formation inhibition (test not described); conditions: no test described
LPS-stimulated PMNs = assay: NET formation by LPS-stimulated adult human PMNs (live cell imaging, histone H3 release); format: cell-based; conditions: LPS 100 ng/mL; for NET formation by LPS-stimulated PMNs: healthy adult PMNs, peptide/protein pre-incubation 1 hour (1 nM where stated)
[1] = system: human PMNs stimulated with phorbol 12-myristate acetate (PMA); conditions: background statement; cited from earlier work
PMA-stimulated PMNs = assay: Nuclear decondensation (nuclear area) assay; format: cell-based, human; conditions: CRISPP 1 nM, SCR 1 nM, Sivelestat 200 nM; PMA 20 nM, 2 hours; vs PMA alone
Experimental: Using techniques modified from Papayannopoulos et al., J Cell Biol, 2010, 191: 677-691, nuclear area assays were used for PMA-stimulated PMNs as a surrogate for NET formation. PMNs were stimulated with PMA (20 nM) for 2 hours and then visualized via live cell imaging with a cell permeable DNA dye. Images from 5 randomly selected high power fields were captured and the nuclear area of all PMNs on each visual field was quantitated using IMAGEJ software. Nuclear areas were compared for PMNs stimulated with PMA with PMNs pre-incubated with CRISPP (1 nM), SCR (1 nM), or the NE inhibitor Sivelestat (200 nM). […] Next, immunocytochemical experiments designed to see whether CRISPP is taken up by human PMNs were performed. The CRISPP-F and SCR-F peptides and FLAG-tag specific primary antibodies were used to assess cellular location. […] CRISPP can inhibit nuclear chromatin decondensation, which is consistent with the selective inhibition of NET formation by CRISPP and nNIF. This process may involve inhibition of NE activity.
PMNs were isolated and resuspended to 2×10^6 cells/mL in M-199 media. […] 5 randomly selected high power visual fields per sample were captured via confocal microscopy and analyzed for nuclear area using the cell-permeable, fluorescent DNA dye SYTO Green. The nuclear pixel areas of >100 individual cells per high power field were determined using IMAGE-J software (NIH).

[2] = system: PMA-stimulated adult PMNs; assay: NET formation by PMA-stimulated adult human PMNs; format: cell-based; conditions: pre-incubation 1 nM, 1 hour; PMA 20 nM
[3] = system: Outbred Swiss-Webster mice, E. coli peritonitis; assay: Murine E. coli peritonitis: peritoneal fluid and membrane analysis; format: in vivo, mouse
Experimental: Outbred Swiss-Webster mice were injected intraperitoneally with 4.5×10^7 colony-forming units (cfu) of E. coli±nNIF, CRISPP, or scrambled control peptide (SCR) (10 mg/kg, IP injection) one hour prior to E. coli infection. At the 3 hour time point after infection, 3 mice were sacrificed and the peritoneal fluid and peritoneal tissue were collected and analyzed for leukocyte accumulation, bacteriology, and in vivo NET formation. […] See Fuchs et al., J Cell Biol, 2007, 176: 231-241. The number of E. coli cfu/mL of peritoneal fluid in CRISPP pretreated mice was also determined compared to SCR mice (see FIG. 17C).
Animals were treated with CRISPP (10 mg/kg), nNIF (10 mg/kg), or SCR (10 mg/kg) by i.p. injection 1 hour prior to infection (E. coli, 4.5×10^7 cfu/mouse, i.p. injection) or stimulation (LPS, 25 mg/kg, i.p. injection (SIGMA)). Control mice were injected with saline alone. The mice were sacrificed in a CO2 chamber 3 hours post-infection/stimulation with the peritoneal contents harvested and analyzed. Briefly, the skin of the abdomen was cut open in the midline after thorough disinfection and without injuring the muscle. The peritoneal cavity was lavaged with sterile saline solution ([…]) and analyzed for in vivo NET formation, bacteriology, and leukocyte accumulation. NETs in the peritoneal fluid were qualitatively and quantitatively analyzed using live cell imaging with confocal microscopy and histone release assays. NETs on the inner surface of the peritoneal membrane were assessed quantitatively using live cell imaging followed by standardized grid analysis of 5 randomly selected high power visual fields per tissue sample (IMAGE-J software, NIH). Peritoneal bacterial colony forming units (cfu) counts were quantified by permeabilizing all recovered leukocytes with 0.1% Triton-X 100 for 10 minutes and performing serial dilutions and bacterial cultures on 5% sheep blood agar plates (HARDY DIAGNOSTICS). After a 24-hour incubation, bacterial counts were determined. Total leukocyte counts in the peritoneal lavage were determined in Neubauer chambers using an optical microscope after dilution in Turk's solution (2% acetic acid). Differential leukocyte analysis was performed using a 60× oil immersion objective to assess morphology of cyto-centrifuged cells stained with May-Grunwald-Giemsa dye.

[4] = system: PMNs isolated from healthy adult donors; assay: PMN chemotaxis, modified Boyden Chamber assay; format: cell-based, human; conditions: 1 nM, one hour pre-incubation; IL-8 2 ng/mL
Experimental: Chemotaxis by PMNs isolated from healthy adult donors was assessed using a modified Boyden Chamber assay±a one hour pre-incubation […] (1 nM), or SCR (1 nM). Recombinant human IL-8 (2 ng/mL) was used as the chemoattractant. Chemotaxis through a 5 micron filter was determined by counting PMNs in 10 randomly selected high-power fields as previously described in Hill et al., Lancet, 1974, 2: 617-619. In separate experiments, […], or SCR (all at 1 nM) were evaluated for chemoattractant activity using the same system.

[5] = system: PMNs isolated from healthy adult donors; assay: PMN phagocytosis of E. coli BIOPARTICLES; format: cell-based, human; conditions: 1 nM, 60 minutes pre-incubation, 4 hours
Experimental: PMNs were isolated from blood of healthy adult donors and resuspended in M-199 at a concentration of 2×10^6 cells/mL. Leukocytes were pre-incubated for 60 minutes under standard conditions with cytochalasin B and […] (1 nM), or SCR (1 nM). Following pre-incubation, PMNs were incubated with 6×10^6 E. coli BIOPARTICLES (E-13231, MOLECULAR PROBES) on a rotator for 4 hours under standard conditions. The PMNs were then washed and resuspended in the starting volume in M-199 before being spun down onto glass coverslips and fixed with 2% paraformaldehyde for 10 minutes and permeabilized with 0.1% Triton-X-100 for 10 minutes. Leukocytes were stained with WGA 555 (INVITROGEN) and TO[…] (MOLECULAR PROBES) and randomly selected high power visual field images were captured using confocal microscopy. IMAGE-J software (NIH) was used to determine the percentage of PMNs that were positive for fluorescently labeled E. coli BIOPARTICLES detected at 488 nm.

[6] = system: LPS-stimulated human PMNs; assay: Reactive oxygen species generation, dihydrorhodamine assay; format: cell-based; conditions: 1 nM, 1 hour pre-incubation; LPS 100 ng/mL
Experimental: Human PMNs isolated from healthy adult whole blood were resuspended to a concentration of 2×10^6 cells/mL in M-199 media and pre-incubated±[…] (1 nM) or SCR (1 nM) peptide for 1 hour under standard conditions. The PMNs were then stimulated with LPS (100 ng/mL) for 1 hour, washed, and resuspended with a dihydrorhodamine (7.25 mM; D-632, MOLECULAR PROBES) and catalase (1000 Units/mL; C-40, SIGMA) mixture and incubated at 37° C. for 10 minutes. After incubation, samples were placed at 4° C. and analyzed for ROS-dependent fluorescence using a BECTON-DICKINSON FACSCAN device equipped with CELLQUEST software.

[7] = 10 mg/kg IP pretreatment, vs SCR control

## A1ATm^358: cleavage fragment of full length A1AT (SEQ ID NO:3), an nNIF-related peptide (PMSIPPEVKFNKPFVFLMIEQNTKSPLFMGKVVNPTQK; homo sapiens)
NET formation
  NET formation: inhibit NET formation

## alpha 1-antitrypsin [A1AT]
LPS-stimulated PMNs
  NET formation by LPS-stimulated PMNs: failed to inhibit NET formation
LPS-stimulated PMNs; rAAT (1 nM) added to nNIF-depleted cord blood plasma, listed as recombinant full length A1AT
  NET formation by LPS-stimulated PMNs, recombinant AAT in nNIF-depleted cord blood plasma: did not inhibit NET formation
[1]
  NET formation in PMA-stimulated human PMNs: does not inhibit NET formation

## CC(C)(C)C(=O)Oc1ccc(S(=O)(=O)Nc2ccccc2C(=O)NCC(=O)O)cc1 [Sivelestat, reference compound]
PMA-stimulated PMNs
  Nuclear area of PMA-stimulated PMNs: significant decrease in nuclear area

## neonatal NET-Inhibitory Factor (KAVLTIDEKGTEAAGAMFLEAIPMSIPPEVKFNKPFVFLMIEQNTKSPLFMGKVVNPTQK; listed as Homo sapiens) [nNIF]
LPS-stimulated PMNs
  NET formation by LPS-stimulated PMNs: significantly inhibited NET formation
[2]
  NET formation by PMA-stimulated PMNs: significantly inhibited NET formation
[3]; [7]
  NET formation by histone H3 release assay of the peritoneal fluid: significant quantitative decrease
  NET formation in the peritoneal fluid (live cell imaging): qualitative decrease
[3]; freshly resected peritoneal membrane, live cell imaging, standardized grid
  Peritoneal membrane-associated NET formation: qualitative and quantitative decrease
[4]
  PMN chemotaxis: did not significantly inhibit
[5]
  PMN phagocytosis: did not significantly inhibit
[6]
  Reactive oxygen species generation: did not significantly inhibit

B1: recombinant serpin B1: serine protease inhibitor expressed as a cytoplasmic protein by human PMNs (protein, UniProt P30740 1-379, looked up)
Leukocyte elastase inhibitor: MEQLSSANTRFALDLFLALSENNPAGNIFISPFSISSAMAMVFLGTRGNTAAQLSKTFHFNTVEEVHSRFQSLNADINKRGASYILKLANRLYGEKTYNFLPEFLVSTQKTYGADLASVDFQHASEDARKTINQWVKGQTEGKIPELLASGMVDNMTKLVLVNAIYFKGNWKDKFMKEATTNAPFRLNKKDRKTVKMMYQKKKFAYGYIEDLKCRVLELPYQGEELSMVILLPDDIEDESTGLKKIEEQLTLEKLHEWTKPENLDFIEVNVSLPRFKLEESYTLNSDLARLGVQDLFNSSKADLSGMSGARDIFISKIVHKSFVEVNEEGTEAAAATAGIATFCMLMPEENFTADHPFLFFIRHNSSGSILFLGRFSSP
[1]
  NET formation in PMA-stimulated human PMNs: inhibits NET formation
